From US8106055B2, “Substituted amide compounds” (Gruenenthal GmbH, priority 2007, dated 2012)

How the values were obtained:
[1] = target: T1, serotonin (5-HT) reuptake (Rattus norvegicus, UniProt P31652); test: Inhibition of serotonin (5HT) reuptake in synaptosomes from rat brain; type: biochemical; conditions: test concentration of 10 μM
T1 construct: synaptosomes are freshly isolated from areas of the rat brain; from tissue; host or cells: rat brain synaptosomes (P2 fraction)
Procedure, shortened: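 Freshly isolated rat brain synaptosomes (P2 fraction) used for 5-HT reuptake. Test compound at 10 μM, activity given as % inhibition.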

human μ opiate receptor = target: T2, human μ opiate receptor (Homo sapiens, UniProt P35372); test: Affinity for the human μ opiate receptor ([3H]-naloxone displacement, CHO-K1 receptor membrane preparation, SPA); type: binding; conditions: test concentration of 1 μM
T2 construct: purchased PerkinElmer Life Sciences, Zaventem, Belgium RB-HOM; host or cells: CHO-K1 cells (membrane preparation)
Procedure, shortened: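 CHO-K1 membranes expressing human μ receptor incubated 90 min at room temperature with 1 nmol/l [3H]-naloxone and WGA-SPA beads in 50 mmol/l Tris-HCl, 0.06% BSA; 100 μmol/l naloxone defines non-specific binding. Values are % inhibition of specific binding at 1 μM; IC50 converted to Ki by Cheng-Prusoff.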

T1 sequence (P31652 whole entry): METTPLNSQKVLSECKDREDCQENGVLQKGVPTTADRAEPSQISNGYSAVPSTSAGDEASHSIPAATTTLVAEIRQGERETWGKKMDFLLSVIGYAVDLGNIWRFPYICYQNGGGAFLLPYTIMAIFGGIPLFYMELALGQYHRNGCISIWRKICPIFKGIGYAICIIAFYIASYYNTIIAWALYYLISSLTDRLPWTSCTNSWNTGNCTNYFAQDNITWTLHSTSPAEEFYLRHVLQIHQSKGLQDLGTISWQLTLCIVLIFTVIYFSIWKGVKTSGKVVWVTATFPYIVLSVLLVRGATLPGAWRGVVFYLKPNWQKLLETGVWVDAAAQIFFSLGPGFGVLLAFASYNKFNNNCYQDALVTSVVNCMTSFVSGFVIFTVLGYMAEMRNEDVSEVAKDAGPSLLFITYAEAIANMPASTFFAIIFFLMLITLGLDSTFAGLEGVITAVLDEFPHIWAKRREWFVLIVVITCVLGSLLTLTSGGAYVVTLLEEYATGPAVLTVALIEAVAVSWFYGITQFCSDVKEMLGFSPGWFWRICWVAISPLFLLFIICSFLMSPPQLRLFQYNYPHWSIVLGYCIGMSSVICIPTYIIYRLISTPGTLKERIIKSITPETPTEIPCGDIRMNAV
T2 sequence (P35372 whole entry): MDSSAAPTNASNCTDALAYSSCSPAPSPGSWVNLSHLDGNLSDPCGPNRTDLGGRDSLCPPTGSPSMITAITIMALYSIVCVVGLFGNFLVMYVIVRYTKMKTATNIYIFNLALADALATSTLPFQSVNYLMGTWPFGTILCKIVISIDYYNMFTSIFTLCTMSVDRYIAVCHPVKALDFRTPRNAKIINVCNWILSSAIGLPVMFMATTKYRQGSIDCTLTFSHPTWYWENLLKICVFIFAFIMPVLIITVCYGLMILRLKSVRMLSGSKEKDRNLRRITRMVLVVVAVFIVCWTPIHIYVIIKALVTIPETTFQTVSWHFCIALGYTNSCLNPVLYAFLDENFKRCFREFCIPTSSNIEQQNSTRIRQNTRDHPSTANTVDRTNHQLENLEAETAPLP

| Compound | 5-HT (inhibition of reuptake of serotonin, % inhibition) [1] [%] | μ (binding on the μ opioid receptor, % inhibition) (human μ opiate receptor) [%] |
| --- | --- | --- |
| CN(C)C(c1ccc(Cl)cc1)C1CCC(CNC(=O)COC2CCN(S(=O)(=O)c3cccc(C(F)(F)F)c3)C2)CC1 (centres unmarked) [Example 331] | 84 | 61 |
| CN(C)C(c1ccc(F)cc1)C1CCC(CNC(=O)COCCN(Cc2ccccc2)S(=O)(=O)c2ccccc2)CC1 (centres unmarked) [Example 342] | 94 | 57 |
| CCN(CCOCC(=O)NCC1CCC(C(c2ccc(F)cc2)N(C)C)CC1)S(=O)(=O)c1c(C)cc(OC)c(C)c1C (centres unmarked) [Example 327] | 90 | 67 |
| COc1ccc(S(=O)(=O)N2CCCC2COCC(=O)NCC2CCC(C(c3ccc(Cl)cc3)N(C)C)CC2)cc1 (centres unmarked) [Example 351] | 97 | 63 |
| CN(C)C(c1ccc(F)cc1)C1CCC(NC(=O)COCCN(C)S(=O)(=O)c2ccc(Cl)cc2Cl)CC1 (centres unmarked) [Example 356] | 84 | 55 |
| COc1ccc(S(=O)(=O)N2Cc3ccccc3CC2COCC(=O)NCC2CCC(C(c3ccc(F)cc3)N(C)C)CC2)cc1 (centres unmarked) [Example 288] | 94 | 65 |
| COc1ccc(S(=O)(=O)N2CCCC2COCC(=O)NCCC2CCC(C(c3ccc(Cl)cc3)N(C)C)CC2)cc1 (centres unmarked) [Example 346] | 95 | 63 |
| CN(C)C(c1ccc(Cl)cc1)C1CCC(CCNC(=O)COCCN(C)S(=O)(=O)c2ccc(Cl)cc2Cl)CC1 (centres unmarked) [Example 291] | 81 | 65 |
| CN(C)C(c1ccc(F)cc1)C1CCC(NC(=O)COCCN(C)S(=O)(=O)c2ccc(OC(F)(F)F)cc2)CC1 (centres unmarked) [Example 361] | 87 | 59 |
| COc1ccc(S(=O)(=O)N2CCCCC2COCC(=O)NCC2CCC(C(c3ccc(Cl)cc3)N(C)C)CC2)c(OC)c1 (centres unmarked) [Example 280] | 78 | 73 |
| COc1ccc(S(=O)(=O)N2CCCCC2COCC(=O)NC2CCC(C(c3cccc(F)c3)N(C)C)CC2)cc1OC (centres unmarked) [Example 352] | 91 | 65 |
| COc1ccc(S(=O)(=O)N2CCCCC2COCC(=O)NC2CCC(C(c3cccc(F)c3)N(C)C)CC2)c(OC)c1 (centres unmarked) [Example 322] | 78 | 70 |
| COc1ccc(S(=O)(=O)N2CCCCC2CCOCC(=O)NCC2CCC(C(c3ccc(F)cc3)N(C)C)CC2)cc1 (centres unmarked) [Example 350] | 92 | 61 |
| COc1ccc(S(=O)(=O)N2CCCCC2COCC(=O)NCC2CCC(C(c3ccc(Cl)cc3)N(C)C)CC2)cc1 (centres unmarked) [Example 321] | 86 | 70 |
| COc1ccc(S(=O)(=O)N(C)CCOCC(=O)NCCC2CCC(C(c3ccc(Cl)cc3)N(C)C)CC2)cc1OC (centres unmarked) [Example 339] | 78 | 63 |
| COc1ccc(S(=O)(=O)N2CCCCC2COCC(=O)NCC2CCC(C(c3cccc(F)c3)N(C)C)CC2)cc1OC (centres unmarked) [Example 329] | 91 | 66 |
